{"source": "patent US9790496B2", "about": "“Microrna compounds and methods for modulating MIR-21 activity” (Regulus Therapeutics, Inc., priority 2011, dated 2017)", "key": {"[1]": {"test_system": "ischemia reperfusion injury/nephrectomy (IR/Nx) model", "assay": "Ischemia reperfusion injury/nephrectomy (IR/Nx) model: urinary albumin to creatinine ratio", "type": "in vivo, mouse", "description": "An ischemia reperfusion injury/nephrectomy (IR/Nx) model is created in the mouse through temporary unilateral clamping of an artery in one kidney, which leads to tubule damage, inflammation, and fibrosis, followed by removal of the second kidney at a later timepoint. In this model, the acute kidney dysfunction phase is useful to test candidate agents for the treatment of acute kidney injury (i.e. up to about the first 5 days), and the later phases of kidney dysfunction are useful to model chronic fibrosis (i.e. after about the first 5 days).\nAnti-miR-21 compounds were tested in the IR/Nx model. 25109, a 6-base mismatch to miR-21, was used as a control compound ([…]; where nucleosides not followed by a subscript indicate β-deoxynucleosides; nucleosides followed by a subscript “E” indicate 2′-MOE nucleosides; nucleosides followed by a subscript “S” indicate S-cEt nucleosides; and all internucleoside linkages are phosphorothioate internucleoside linkages).\nUnilateral IR was induced for a period of 30 minutes. Treatment groups were as follows: sham IR procedure; IR with PBS administered subcutaneously; IR with mismatched control 25109 administered subcutaneously at a dose of 20 mg/kg; IR with anti-miR-21 compound 25070 administered subcutaneously at a dose of 20 mg/kg; and IR with anti-miR-21 compound 25923 administered subcutaneously at a dose of 20 mg/kg. PBS or anti-miR was administered on days 2, 3, 4, and 8 following IR. On day 8, the healthy kidney was removed by nephrectomy from each animal, and animals were sacrificed on day 9. Just prior to sacrifice, urine was collected by direct bladder puncture.\nUrinary albumin to creatinine ratio was measured in the urine from each mouse. […] The geometric mean of the albumin to creatinine ratio in each group of mice was 16 μgAlb/mgCr (nephrectomy-only control), 127 μgAlb/mgCr (IR/Nx, PBS control), 140 μgAlb/mgCr (IR/Nx, 25109 control), 40 μgAlb/mgCr (IR/Nx, 25070), and 31 μgAlb/mgCr (IR/Nx, 25923). Blood urea nitrogen and serum creatinine levels were similar across all IR/Nx mice, and were elevated relative to nephrectomy-only control mice (data not shown)."}, "[2]": {"test_system": "unilateral ureteral obstruction (UUO) model of fibrosis", "assay": "UUO model: collagen area fraction of kidney tissue (picrosirius red histology)", "type": "in vivo, mice", "conditions": "UUO comparison study, 25070 20 mg/kg s.c., irbesartan PO", "procedure": "Control treatment groups included UUO only (sham) and UUO with PBS administered subcutaneously. An additional control group included UUO with Tween-MC/20 carrier perorally. 25070 administered subcutaneously at dose of 20 mg/kg at 5 days prior to, 2 days prior to, and 3 days after, the UUO procedure. Irbesartan was administered perorally on daily on days 0 through 7 following the UUO procedure. Animals were sacrificed on Day 10 following the UUO procedure. Kidney tissue was collected for measurement of collagen 1A1 and collagen 3A1 expression.\nThe ‘collagen area fraction’ is measured histologically through quantitative image processing of the area of kidney tissue that is stained red by the picrosirius red stain; the percent detected as red is normalized by the area of kidney section."}, "[3]": {"assay": "Ex vivo liver homogenate stability assay (HPLC-TOF MS)", "conditions": "5 μM in liver homogenate (50 mg tissue per ml), 24 hours at 37° C."}, "miR-21": {"test_system": "miR-21", "assay": "miR-21 luciferase sensor assay in Hela cells", "type": "cell-based"}, "[4]": {"assay": "In vivo stability: compound in kidney tissue after administration to mice", "conditions": "mice; by 7 days post-injection"}}, "note": "“And” between values parts separate entries of the source, which are not always exact repeats. Identical values can stand only once. “Also recorded” adds a separate entry of the source.", "data": [{"sequence": "AECSATCSAGTCSTGAUSAAGCSTAE (ACATCAGTCTGATAAGCTA; modified nucleosides coded in name, code key not given here) [Compound 25070]", "values": [{"measurement": "reduction in urinary albumin to creatinine ratio (in words)", "setting": "[1]; s.c. 20 mg/kg on days 2, 3, 4, 8", "value": "statistically significant reductions"}, {"measurement": "geometric mean of the urinary albumin to creatinine ratio", "setting": "[1]; s.c. 20 mg/kg on days 2, 3, 4, 8, urine day 9, PBS control 127, nephrectomy-only 16", "value": 40, "unit": "μgAlb/mgCr"}, {"measurement": "Collagen Area Fraction (%), Mean", "setting": "[2]; group mean", "value": 8.0, "unit": "%"}, {"measurement": "Collagen Area Fraction (%), individual animal", "setting": "[2]; sacrifice Day 10, 20 mg/kg", "value": "7.632% and 9.937% and 8.015% and 6.611% and 6.319% and 11.272% and 6.803% and 7.405%"}, {"measurement": "compound lacking the 3'-terminal nucleoside", "setting": "[3]", "value": "about 27%"}, {"measurement": "compound present as the full-length compound", "setting": "[3]", "value": "about 58%"}, {"measurement": "luciferase value normalized to beta-galactosidase activity", "setting": "miR-21; 4 nM oligonucleotide, Hela cells, mock transfection 50", "value": 99}, {"measurement": "luciferase value normalized to beta-galactosidase activity", "setting": "miR-21; .16 nM oligonucleotide, Hela cells, mock transfection 45", "value": 65}, {"measurement": "luciferase value normalized to beta-galactosidase activity", "setting": "miR-21; .8 nM oligonucleotide, Hela cells, mock transfection 33", "value": 87}, {"measurement": "inhibition of miR-21 in the luciferase assay (in words)", "setting": "miR-21; Hela cells", "value": "demonstrated inhibition of miR-21 in a dose-dependent manner; also recorded: potent inhibitor of miR-21 activity"}, {"measurement": "fold change in luciferase value relative to the mock treatment", "setting": "miR-21; concentration of anti-miR compound 0.2 (unit not given)", "value": 1.04}, {"measurement": "fold change in luciferase value relative to the mock treatment", "setting": "miR-21; concentration of anti-miR compound 0.6 (unit not given)", "value": 1.01}, {"measurement": "fold change in luciferase value relative to the mock treatment", "setting": "miR-21; concentration of anti-miR compound 1.9 (unit not given)", "value": 1.14}, {"measurement": "fold change in luciferase value relative to the mock treatment", "setting": "miR-21; concentration of anti-miR compound 5.6 (unit not given)", "value": 6.22}, {"measurement": "fold change in luciferase value relative to the mock treatment", "setting": "miR-21; concentration of anti-miR compound 16.7 (unit not given)", "value": 11.28}, {"measurement": "fold change in luciferase value relative to the mock treatment", "setting": "miR-21; concentration of anti-miR compound 50.0 (unit not given)", "value": 11.00}, {"measurement": "compound present in kidney tissue lacking the 3'-terminal nucleoside", "setting": "[4]", "value": "about 50%"}]}]}
